Laboratory results: patent US9328112B2, “Tetracyclic CDK9 kinase inhibitors” (AbbVie Inc., priority 2014, dated 2016)
Counter-ions that a name gives are not always drawn.

Tests used:
CDK9/Cyclin T1 = CDK9/Cyclin T1 (Homo sapiens (Human), UniProt P50750); assay: CDK9 enzyme assay (LANCE ULight TR-FRET kinase assay); type: biochemical; settings: 1000 μM ATP, 100 nM ULight MBP, kinase reaction 1 hour
Procedure, shortened: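 TR-FRET readout (ex 320 nm; em 615/665 nm) after 1 h detection with 0.5 nM europium anti-phospho-MBP antibody in 20 mM EDTA stop buffer. Preceding 1 h kinase step: CDK9/Cyclin T1, ULight-MBP substrate at 100 nM, ATP at 1000 μM, compound pre-diluted in DMSO then buffer.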

H929 cells = assay: Cell viability assay (Cell TiterGlo); type: cell-based; settings: Cell TiterGlo luminescence
Description: The cell viability assay was performed using H929 cells. Cells were seeded in 96-well plates at 10,000 cells/well and, after overnight incubation, treated with compounds in a dose response of 3-fold dilutions from 10 μM to 0.005 μM ([…], 0.1% final DMSO concentration). After 24 hours at 37° C., cell viability was measured using Cell TiterGlo reagent (Promega) with a luminescence reader.

[1] = Homo sapiens, NCI-H929, 24 hours at 37° C.

CDK9/Cyclin T1, sequence (P50750 whole entry): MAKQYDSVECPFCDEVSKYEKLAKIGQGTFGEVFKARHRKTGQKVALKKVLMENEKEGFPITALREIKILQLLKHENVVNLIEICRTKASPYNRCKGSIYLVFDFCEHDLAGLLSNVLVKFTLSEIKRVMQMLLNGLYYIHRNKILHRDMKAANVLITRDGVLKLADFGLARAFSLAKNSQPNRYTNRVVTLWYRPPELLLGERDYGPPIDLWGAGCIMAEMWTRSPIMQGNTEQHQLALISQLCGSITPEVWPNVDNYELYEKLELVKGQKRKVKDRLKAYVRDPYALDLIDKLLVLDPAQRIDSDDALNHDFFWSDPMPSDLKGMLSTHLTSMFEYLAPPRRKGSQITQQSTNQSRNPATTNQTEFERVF
CDK9/Cyclin T1, sequence (O60563 whole entry partner): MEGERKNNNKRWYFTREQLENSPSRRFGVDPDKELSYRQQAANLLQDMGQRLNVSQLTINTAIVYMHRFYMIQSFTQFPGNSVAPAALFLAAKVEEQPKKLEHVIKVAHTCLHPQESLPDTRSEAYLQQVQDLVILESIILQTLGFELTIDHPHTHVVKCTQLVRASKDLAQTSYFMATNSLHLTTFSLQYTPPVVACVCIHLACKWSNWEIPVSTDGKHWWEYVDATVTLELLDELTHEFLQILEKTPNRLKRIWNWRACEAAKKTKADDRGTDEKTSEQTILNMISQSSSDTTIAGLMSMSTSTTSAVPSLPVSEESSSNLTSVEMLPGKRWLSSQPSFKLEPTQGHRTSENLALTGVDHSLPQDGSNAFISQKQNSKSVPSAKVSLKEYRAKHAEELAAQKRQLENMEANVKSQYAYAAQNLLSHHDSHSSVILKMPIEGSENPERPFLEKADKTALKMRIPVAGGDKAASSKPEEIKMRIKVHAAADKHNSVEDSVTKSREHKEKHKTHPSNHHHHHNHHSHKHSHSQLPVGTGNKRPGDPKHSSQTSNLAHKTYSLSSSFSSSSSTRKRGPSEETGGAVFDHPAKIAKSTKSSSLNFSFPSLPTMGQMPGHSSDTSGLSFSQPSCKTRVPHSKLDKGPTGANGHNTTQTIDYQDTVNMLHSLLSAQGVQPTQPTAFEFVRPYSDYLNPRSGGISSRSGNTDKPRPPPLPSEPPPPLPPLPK

Row | Structure (SMILES) | IC50 (CDK9/Cyclin T1) | IC50 (H929 cells; [1]) | IC50 (H929 cells; 24 hours at 37° C.)
1 | CN1Cc2c(C3=CCN(CC(=O)N(C)C4CC(O)C4)CC3(C)C)[nH]c3nccc(c23)-c2cc(F)ccc21 (stereo not shown) [Example 118, 2-[4-(10-fluoro-7-methyl-6,7-dihydro-4H-3,4,7-triazadibenzo[cd,f]azulen-5-yl)-3,3-dimethyl-3,6-dihydropyridin-1(2H)-yl]-N-(3-hydroxycyclobutyl)-N-methylacetamide] | 1200 nM | 2600 nM | 
2 | CC[C@H]1c2c(C3=CCN([C@H]4C[C@H](C(=O)O)C4)CC3)[nH]c3nccc(c23)-c2cc(F)ccc2N1C [Example 189, trans-3-{4-[(6S)-6-ethyl-10-fluoro-7-methyl-6,7-dihydro-4H-3,4,7-triazadibenzo[cd,f]azulen-5-yl]-3,6-dihydropyridin-1(2H)-yl}cyclobutanecarboxylic acid] | 110 nM | 6 nM | 
3 | CN1Cc2c(C3=CCCN(S(C)(=O)=O)CC3)[nH]c3nccc(c23)-c2cc(F)ccc21 [Example 89, 10-fluoro-7-methyl-5-[1-(methylsulfonyl)-2,3,6,7-tetrahydro-1H-azepin-4-yl]-6,7-dihydro-4H-3,4,7-triazadibenzo[cd,f]azulene] | 120 nM | 230 nM | 
4 | CN1Cc2c(C3=C[C@H]4CC[C@@H](C3)N4S(C)(=O)=O)[nH]c3nccc(c23)-c2cc(F)ccc21 [Example 56, 10-fluoro-7-methyl-5-[(1R,5S)-8-(methylsulfonyl)-8-azabicyclo[3.2.1]oct-2-en-3-yl]-6,7-dihydro-4H-3,4,7-triazadibenzo[cd,f]azulene] | 96 nM | 680 nM | 
5 | CN(CCO)C(=O)CN1CC2C=C(c3[nH]c4nccc5c4c3CN(C)c3ccc(F)cc3-5)CC2C1 (stereo not shown) [Example 86, 2-[5-(10-fluoro-7-methyl-6,7-dihydro-4H-3,4,7-triazadibenzo[cd,f]azulen-5-yl)-3,3a,4,6a-tetrahydrocyclopenta[c]pyrrol-2(1H)-yl]-N-(2-hydroxyethyl)-N-methylacetamide] | 43 nM | 94 nM | 
6 | CC[C@H]1c2c(C3=CCNCC3)[nH]c3nccc(c23)-c2cc(F)ccc2N1C [Example 142, (6S)-6-ethyl-10-fluoro-7-methyl-5-(1,2,3,6-tetrahydropyridin-4-yl)-6,7-dihydro-4H-3,4,7-triazadibenzo[cd,f]azulene] | 30 nM | 5 nM | 
7 | CN1Cc2c(C3=CCN([C@H]4CC[C@H](C(=O)O)CC4)CC3)[nH]c3ncc(F)c(c23)-c2cc(F)ccc21 [Example 166, trans-4-[4-(1,10-difluoro-7-methyl-6,7-dihydro-4H-3,4,7-triazadibenzo[cd,f]azulen-5-yl)-3,6-dihydropyridin-1(2H)-yl]cyclohexanecarboxylic acid] | 75 nM | 8 nM | 
8 | CN1Cc2c(C3=CC4CCCC(C3)N4CC(=O)N(C)C3CC(O)C3)[nH]c3nccc(c23)-c2cc(F)ccc21 (stereo not shown) [Example 106, 2-[3-(10-fluoro-7-methyl-6,7-dihydro-4H-3,4,7-triazadibenzo[cd,f]azulen-5-yl)-9-azabicyclo[3.3.1]non-2-en-9-yl]-N-(3-hydroxycyclobutyl)-N-methylacetamide] | 66 nM | 130 nM | 
9 | CN1Cc2c(C3=CCN(CC(=O)O)CC3)[nH]c3nccc(c23)-c2cc(F)c(F)cc21 [Example 145, [4-(9,10-difluoro-7-methyl-6,7-dihydro-4H-3,4,7-triazadibenzo[cd,f]azulen-5-yl)-3,6-dihydropyridin-1(2H)-yl]acetic acid] | 42 nM | 180 nM | 
10 | CN1Cc2c(C3=CCN(CC(=O)O)CC3(C)C)[nH]c3nccc(c23)-c2cc(F)ccc21 [Example 111, [4-(10-fluoro-7-methyl-6,7-dihydro-4H-3,4,7-triazadibenzo[cd,f]azulen-5-yl)-3,3-dimethyl-3,6-dihydropyridin-1(2H)-yl]acetic acid] | 1600 nM | 5500 nM | 
11 | CN1Cc2c(C3=CCN(S(C)(=O)=O)CC3)[nH]c3nccc(c23)-c2cc(F)ccc21 [Example 4, 10-fluoro-7-methyl-5-[1-(methylsulfonyl)-1,2,3,6-tetrahydropyridin-4-yl]-6,7-dihydro-4H-3,4,7-triazadibenzo[cd,f]azulene] | 25 nM | 150 nM | 
12 | CN(CC(O)CO)C(=O)CN1[C@H]2CC[C@@H]1C=C(c1[nH]c3nccc4c3c1CN(C)c1ccc(F)cc1-4)C2 (stereo partly drawn) [Example 83, N-(2,3-dihydroxypropyl)-2-[(1R,5S)-3-(10-fluoro-7-methyl-6,7-dihydro-4H-3,4,7-triazadibenzo[cd,f]azulen-5-yl)-8-azabicyclo[3.2.1]oct-2-en-8-yl]-N-methylacetamide] | 140 nM | 140 nM | 
13 | CN1Cc2c(C3=CCN[C@@H](CO)C3)[nH]c3nccc(c23)-c2cc(F)ccc21 [Example 156, [(2R)-4-(10-fluoro-7-methyl-6,7-dihydro-4H-3,4,7-triazadibenzo[cd,f]azulen-5-yl)-1,2,3,6-tetrahydropyridin-2-yl]methanol] | 30 nM | 22 nM | 
14 | CN1Cc2c(C3=CCN([C@H]4CC[C@@H](CC(=O)O)CC4)CC3)[nH]c3ncc(F)c(c23)-c2ccccc21 [Example 182, {cis-4-[4-(1-fluoro-7-methyl-6,7-dihydro-4H-3,4,7-triazadibenzo[cd,f]azulen-5-yl)-3,6-dihydropyridin-1(2H)-yl]cyclohexyl}acetic acid] | 71 nM | 10 nM | 
15 | CN1Cc2c(C3=CCC(NCC(=O)O)CC3)[nH]c3nccc(c23)-c2cc(F)ccc21 (stereo not shown) [Example 31, N-[4-(10-fluoro-7-methyl-6,7-dihydro-4H-3,4,7-triazadibenzo[cd,f]azulen-5-yl)cyclohex-3-en-1-yl]glycine] | 86 nM | 70 nM | 
16 | CN1Cc2c(C3=CCC(N4CCC[C@H]4C(=O)O)CC3)[nH]c3nccc(c23)-c2cc(F)ccc21 (stereo partly drawn) [Example 37, 1-[4-(10-fluoro-7-methyl-6,7-dihydro-4H-3,4,7-triazadibenzo[cd,f]azulen-5-yl)cyclohex-3-en-1-yl]-L-proline] | 160 nM | 290 nM | 
17 | CN1Cc2c(C3=CCN(CC(=O)N4CC[C@H](O)C4)CC3)[nH]c3nccc(c23)-c2cc(F)ccc21 [Example 42, 2-[4-(10-fluoro-7-methyl-6,7-dihydro-4H-3,4,7-triazadibenzo[cd,f]azulen-5-yl)-3,6-dihydropyridin-1(2H)-yl]-1-[(3S)-3-hydroxypyrrolidin-1-yl]ethanone] | 48 nM | 79 nM | 
18 | CCOC(=O)C1CC=C(c2[nH]c3nccc4c3c2CN(C)c2ccc(F)cc2-4)CC1 (stereo not shown) [Example 61, ethyl 4-(10-fluoro-7-methyl-6,7-dihydro-4H-3,4,7-triazadibenzo[cd,f]azulen-5-yl)cyclohex-3-ene-1-carboxylate] | 400 nM | 1200 nM | 
19 | CN1CCc2c(C3=CCN(S(C)(=O)=O)CC3)[nH]c3nccc(c23)-c2cc(F)ccc21 [Example 128, 8-fluoro-5-methyl-2-[1-(methylsulfonyl)-1,2,3,6-tetrahydropyridin-4-yl]-1,3,4,5-tetrahydro-1,5,12-triazabenzo[4,5]cycloocta[1,2,3-cd]indene] | 78 nM |  | 150 nM
20 | CN1Cc2c(C3=CCN(CC(=O)N4CC(O)C4)CC3)[nH]c3nccc(c23)-c2cc(F)c(F)cc21 [Example 137, 2-[4-(9,10-difluoro-7-methyl-6,7-dihydro-4H-3,4,7-triazadibenzo[cd,f]azulen-5-yl)-3,6-dihydropyridin-1(2H)-yl]-1-(3-hydroxyazetidin-1-yl)ethanone] | 52 nM | 45 nM | 
21 | CN1Cc2c(C3=CC4CCCC(C3)N4C(=O)CC#N)[nH]c3nccc(c23)-c2cc(F)ccc21 (stereo not shown) [Example 102, 3-[3-(10-fluoro-7-methyl-6,7-dihydro-4H-3,4,7-triazadibenzo[cd,f]azulen-5-yl)-9-azabicyclo[3.3.1]non-2-en-9-yl]-3-oxopropanenitrile] | 44 nM | 623 nM | 
22 | OCC(O)CN1CC=C(c2[nH]c3nccc4c3c2COc2ccc(F)cc2-4)CC1 (stereo not shown) [Example 164, 3-[4-(10-fluoro-4,6-dihydro-7-oxa-3,4-diazadibenzo[cd,f]azulen-5-yl)-3,6-dihydropyridin-1(2H)-yl]propane-1,2-diol] | 130 nM | 270 nM | 
23 | CN(C)C(=O)CN1CC=C(c2[nH]c3nccc4c3c2CN(C)c2cc(F)c(F)cc2-4)CC1 [Example 132, 2-[4-(9,10-difluoro-7-methyl-6,7-dihydro-4H-3,4,7-triazadibenzo[cd,f]azulen-5-yl)-3,6-dihydropyridin-1(2H)-yl]-N,N-dimethylacetamide] | 40 nM | 14 nM | 
24 | CN1Cc2c(C3=CCN(CC(=O)N4CCC[C@H]4CO)CC3)[nH]c3ncc(F)c(c23)-c2cc(F)ccc21 [Example 70, 2-[4-(1,10-difluoro-7-methyl-6,7-dihydro-4H-3,4,7-triazadibenzo[cd,f]azulen-5-yl)-3,6-dihydropyridin-1(2H)-yl]-1-[(2S)-2-(hydroxymethyl)pyrrolidin-1-yl]ethanone] | 86 nM | 5 nM | 
25 | CN(C)C(=O)C1CC=C(c2[nH]c3nccc4c3c2CN(C)c2ccc(F)cc2-4)CC1 (stereo not shown) [Example 50, 4-(10-fluoro-7-methyl-6,7-dihydro-4H-3,4,7-triazadibenzo[cd,f]azulen-5-yl)-N,N-dimethylcyclohex-3-ene-1-carboxamide] | 120 nM | 960 nM | 
26 | CN1Cc2c(C3=CCN(CC(=O)O)CC3)[nH]c3nccc(c23)-c2cc(F)ccc21 [Example 16, [4-(10-fluoro-7-methyl-6,7-dihydro-4H-3,4,7-triazadibenzo[cd,f]azulen-5-yl)-3,6-dihydropyridin-1(2H)-yl]acetic acid dihydrochloride] | 61 nM | 220 nM | 
